# In patent US11202776B2, “Treatment of gastroparesis with triazaspiro[4.5]decanone” (Millennium Pharmaceuticals, Inc., priority 2017, dated 2021):
# Counter-ions that a name gives are not always drawn. Like-named read-outs stand apart in the source and are kept apart here.
# Legend:
# D2 receptor = biological target: T1, D2 receptor (Homo sapiens, UniProt P14416); experiment: Clinical PD: serum prolactin concentration as marker of pharmacologic activity (D2 receptor target engagement); type: in vivo
# T1 construct: from tissue; host or cells: healthy human subjects in vivo (lactotroph cells of the anterior pituitary gland)
# Protocol: (§1) A phase I randomized, double-blind, placebo-controlled, adaptive-design, single-ascending dose (SAD) and multiple-ascending dose (MAD) study was conducted in healthy human subjects to evaluate the safety, tolerability, pharmacokinetics (PK), pharmacodynamics (PD), food effect, and optimal oral dose of 3-((1-cyclohexyl-4-oxo-8-(4-oxo-4-phenylbutyl)-1,3,8-triazaspiro[4.5]decan-3-yl)methyl)benzoic acid maleate (hereinafter, “the Maleate Salt”). The SAD phase included an arm to evaluate food effect on the PK of the Maleate Salt. The SAD phase also evaluated the effect of the Maleate Salt on ECG parameters, including an assessment of QT-interval changes using exposure-response analysis.
# In the same phase I study, serum prolactin concentrations were evaluated as a marker of pharmacologic activity (D2 receptor target engagement). Prolactin is primarily secreted from lactotroph cells of the anterior pituitary gland, and the release of prolactin from these cells is under inhibitory control by DA. Fitzgerald and Dinan, J. Psychopharmacol. 2008, 22, 12-19.
# The increases were substantial compared to placebo. The prolactin response was maximal at the 10 mg dose of the Maleate Salt in the SAD phase.
# [1] = Phase I single-ascending dose (SAD) pharmacokinetics incl. food effect, plasma concentration of the Compound; type: in vivo, human; conditions: for half-life / AUC(0-inf) / AUC(0-t) / Cmax / Tmax: human, plasma
# Protocol: as §1
# (§2) The Maleate Salt was formulated in the study as immediate-release, hard gelatin capsules for oral administration. Each capsule contained 5 mg or 25 mg of the Maleate Salt, as well as microcrystalline cellulose NF (AVICEL® PH-102), sodium starch glycolate NF (EXPLOTAB®), and magnesium stearate NF, all filled into a size 3 hard gelatin capsule. A matching placebo containing the same amount of microcrystalline cellulose NF in place of the Maleate Salt was used in the study. The Maleate Salt capsules and matching placebo capsules were packaged in high-density polyethylene (HDPE) bottles with polypropylene caps and stored at controlled conditions per the USP.
# (§3) A total of 54 subjects received at least 1 dose of the Maleate Salt, ranging from 5 mg to the maximum single PO dose of 300 mg. Six subjects received a maximum single PO dose of 300 mg and 5 subjects received a total of 900 mg of the Maleate Salt over 5-day period (100 mg BID for 4 days with single 100 mg on Day 5).
# The SAD phase had 7 cohorts dosed at 5 mg (cohort 1), 10 mg (cohort 2), 25 mg (cohort 3), 50 mg (cohort 4), 100 mg (cohort 5), 200 mg (cohort 6), and 300 mg (cohort 7) of the Maleate Salt. In each cohort, there were 6 active- and 2 placebo-treated subjects. Subjects were administered the Maleate Salt in the fasting state with 1 exception: subjects in the 25 mg cohort (cohort 3) received the Maleate Salt while fasting and again after a high-fat breakfast to determine food effect on PK.
# Mean plasma concentration-time profiles for 3-((1-cyclohexyl-4-oxo-8-(4-oxo-4-phenylbutyl)-1,3,8-triazaspiro[4.5]decan-3-yl)methyl)benzoic acid (hereinafter, “the Compound”) following a single PO dose of the Maleate Salt are shown in FIG. 1.
# In evaluating food effect on the PK of the Maleate Salt, subjects on Day 1 in cohort 3 were administered a single dose of the Maleate Salt at 25 mg or placebo in the fasted state. On Day 3, the same subjects received an identical dose 30 minutes after consumption of a standardized, high-fat, high-calorie breakfast.
# [2] = Phase I multiple-ascending dose (MAD) pharmacokinetics, BID Days 1-4 and single morning dose Day 5; type: in vivo, human; conditions: for Tlast / Cmax / Tmax / half-life / AUC / concentration at 12 h / concentration at 24 h: fasting; for Cav, ss / Cmin / Tmin / AI: steady state; for AI: Day 5, mean; for Cmax / Tmax / half-life / AUC / concentration at 12 h / concentration at 24 h: human, plasma; for Cmax / Tmax / half-life / AUC: po; for AUC: read-out: AUC12; for concentration at 12 h / concentration at 24 h: read-out: Clast
# Protocol: as §1, §2, §3
# The MAD phase had 2 cohorts dosed at 50 and 100 mg of the Maleate Salt. In each cohort, there were 6 active- and 2 placebo-treated subjects. The Maleate Salt was administered to fasting subjects BID (morning and evening) on Days 1 through 4 and as a single morning dose on Day 5.
# On Day 1, mean T1/2 was approximately 2 h for both 50 and 100 mg BID doses. On Day 5, mean T1/2 was 11.0 and 6.2 h following 50 and 100 mg BID doses, respectively. For T1/2 determination, the plasma samples for Day 1 were only collected to 12 h, whereas the plasma samples for Day 5 were collected to 24 h.
# [3] = po, 5 mg, single PO dose 5 mg, fasted, healthy subjects
# [4] = po, 10 mg, single PO dose 10 mg, fasted, healthy subjects
# [5] = po, 25 mg, single PO dose 25 mg, fasted, healthy subjects
# [6] = po, 25 mg, single PO dose 25 mg, fed (high-fat breakfast), healthy subjects
# [7] = po, 50 mg, single PO dose 50 mg, fasted, healthy subjects
# [8] = po, 100 mg, single PO dose 100 mg, fasted, healthy subjects
# [9] = po, 200 mg, single PO dose 200 mg, fasted, healthy subjects
# [10] = po, 300 mg, single PO dose 300 mg, fasted, healthy subjects
# T1 sequence (P14416 whole entry): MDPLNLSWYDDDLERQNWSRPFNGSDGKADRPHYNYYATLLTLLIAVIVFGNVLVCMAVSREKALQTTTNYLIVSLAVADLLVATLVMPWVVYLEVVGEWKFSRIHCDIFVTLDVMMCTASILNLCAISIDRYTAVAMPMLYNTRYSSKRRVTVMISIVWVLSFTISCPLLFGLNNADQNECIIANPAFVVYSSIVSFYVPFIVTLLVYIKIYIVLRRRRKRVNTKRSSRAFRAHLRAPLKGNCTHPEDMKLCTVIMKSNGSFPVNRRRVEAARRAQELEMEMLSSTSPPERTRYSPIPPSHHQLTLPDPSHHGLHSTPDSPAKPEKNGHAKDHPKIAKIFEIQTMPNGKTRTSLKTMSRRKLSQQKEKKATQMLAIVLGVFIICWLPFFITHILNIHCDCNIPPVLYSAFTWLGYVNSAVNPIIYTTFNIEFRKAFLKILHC
compound,measurement,setting,value
"O=C(O)c1cccc(CN2CN(C3CCCCC3)C3(CCN(CCCC(=O)c4ccccc4)CC3)C2=O)c1 [the Maleate Salt, 3-((1-cyclohexyl-4-oxo-8-(4-oxo-4-phenylbutyl)-1,3,8-triazaspiro[4.5]decan-3-yl)methyl)benzoic acid maleate]",Accumulation in serum prolactin,"D2 receptor; MAD phase, after BID dosing for 5 days",little if any accumulation
same,Dose at which the prolactin response was maximal,D2 receptor; SAD phase,10 mg
same,Median serum prolactin Tmax,D2 receptor; across all 48 single-dose administrations,approximately 1.1 h
same,Increases in serum prolactin compared to placebo,D2 receptor; following oral administration,substantial
same,Serum prolactin concentration,"D2 receptor; following oral administration, SAD and MAD phases",increased rapidly
same,Food effect on Tmax,"[1]; 25 mg single dose, high-fat meal prior to dosing vs fasted",did not alter Tmax
same,Exposure versus dose administered,"[1]; SAD phase, fasted conditions, 5-300 mg",approximately proportional to the dose administered
same,half-life,"[1]; oral, across all cohorts in the SAD phase, read-out: Arithmetic mean T1/2 in fasted subjects (converted)",~4 h
same,AUC(0-inf),[1]; [3],4.5 ng·h/mL
same,AUC(0-t),[1]; [3],4.3 ng·h/mL
same,Cmax,[1]; [3],2.1 ng/mL
same,half-life,"[1]; po, 5 mg, single PO dose 5 mg, fasted, healthy subjects, read-out: T1/2 (converted)",~1.6 h
same,Tmax,"[1]; po, 5 mg, single PO dose 5 mg, fasted, healthy subjects, read-out: Tmax",0.83 h
same,AUC(0-inf),[1]; [4],13.1 ng·h/mL
same,AUC(0-t),[1]; [4],12.9 ng·h/mL
same,Cmax,[1]; [4],6.2 ng/mL
same,half-life,"[1]; po, 10 mg, single PO dose 10 mg, fasted, healthy subjects, read-out: T1/2 (converted)",~1.6 h
same,Tmax,"[1]; po, 10 mg, single PO dose 10 mg, fasted, healthy subjects, read-out: Tmax",1.21 h
same,AUC(0-inf),[1]; [5],30.4 ng·h/mL
same,AUC(0-t),[1]; [5],30.5 ng·h/mL
same,Cmax,[1]; [5],10.5 ng/mL
same,half-life,"[1]; po, 25 mg, single PO dose 25 mg, fasted, healthy subjects, read-out: T1/2 (converted)",6 h
same,Tmax,"[1]; po, 25 mg, single PO dose 25 mg, fasted, healthy subjects, read-out: Tmax",1.8 h
same,AUC(0-inf),[1]; [6],17.2 ng·h/mL
same,AUC(0-t),[1]; [6],17.6 ng·h/mL
same,Cmax,[1]; [6],6.7 ng/mL
same,half-life,"[1]; po, 25 mg, single PO dose 25 mg, fed (high-fat breakfast), healthy subjects, read-out: T1/2 (converted)",7 h
same,Tmax,"[1]; po, 25 mg, single PO dose 25 mg, fed (high-fat breakfast), healthy subjects, read-out: Tmax",2.2 h
same,AUC(0-inf),[1]; [7],56.7 ng·h/mL
same,AUC(0-t),[1]; [7],53.2 ng·h/mL
same,Cmax,[1]; [7],22 ng/mL
same,half-life,"[1]; po, 50 mg, single PO dose 50 mg, fasted, healthy subjects, read-out: T1/2 (converted)",3.1 h
same,Tmax,"[1]; po, 50 mg, single PO dose 50 mg, fasted, healthy subjects, read-out: Tmax",1.04 h
same,AUC(0-inf),[1]; [8],180 ng·h/mL
same,AUC(0-t),[1]; [8],104 ng·h/mL
same,Cmax,[1]; [8],48.3 ng/mL
same,half-life,"[1]; po, 100 mg, single PO dose 100 mg, fasted, healthy subjects, read-out: T1/2 (converted)",5.4 h
same,Tmax,"[1]; po, 100 mg, single PO dose 100 mg, fasted, healthy subjects, read-out: Tmax",1.78 h
same,AUC(0-inf),[1]; [9],242 ng·h/mL
same,AUC(0-t),[1]; [9],240 ng·h/mL
same,Cmax,[1]; [9],106 ng/mL
same,half-life,"[1]; po, 200 mg, single PO dose 200 mg, fasted, healthy subjects, read-out: T1/2 (converted)",5.4 h
same,Tmax,"[1]; po, 200 mg, single PO dose 200 mg, fasted, healthy subjects, read-out: Tmax",1.24 h
same,AUC(0-inf),[1]; [10],446 ng·h/mL
same,AUC(0-t),[1]; [10],421 ng·h/mL
same,Cmax,[1]; [10],192 ng/mL
same,half-life,"[1]; po, 300 mg, single PO dose 300 mg, fasted, healthy subjects, read-out: T1/2 (converted)",5.1 h
same,Tmax,"[1]; po, 300 mg, single PO dose 300 mg, fasted, healthy subjects, read-out: Tmax",1.88 h
same,half-life,"[1]; po, 25 to 300 mg dose levels, single PO dose, read-out: Arithmetic mean T1/2 in fasted subjects (converted)",3.1 to 6 h
same,Tmax,"[1]; po, SAD phase, single PO doses, read-out: Median Tmax",~1.1 h
same,Tlast,"[2]; 50 mg BID PO, Day 1",12.0 h
same,Tlast,"[2]; 50 mg BID PO, Day 5",24.0 h
same,"Cav, ss","[2]; 50 mg BID PO, Day 5",4.84 ng/mL
same,Cmin,"[2]; 50 mg BID PO, Day 5",0.32 ng/mL
same,Tmin,"[2]; 50 mg BID PO, Day 5",8.0 h
same,AI,[2]; 50 mg BID PO,1.89
same,Tlast,"[2]; 100 mg BID PO, Day 1",12.0 h
same,Tlast,"[2]; 100 mg BID PO, Day 5",24.0 h
same,"Cav, ss","[2]; 100 mg BID PO, Day 5",16.71 ng/mL
same,Cmin,"[2]; 100 mg BID PO, Day 5",0.65 ng/mL
same,Tmin,"[2]; 100 mg BID PO, Day 5",4.8 h
same,AI,[2]; 100 mg BID PO,1.38
same,Accumulation for AUC12,[2]; 50 or 100 mg BID dosing,less than 30%
same,Accumulation for Cmax,[2]; 50 or 100 mg BID dosing,less than 40%
same,Cmax,"[2]; 50 mg, 50 mg BID PO, Day 1",23.3 ng/mL
same,Tmax,"[2]; 50 mg, 50 mg BID PO, Day 1",1.55 h
same,half-life,"[2]; 50 mg, 50 mg BID PO, Day 1 (samples collected to 12 h)",~2 h
same,AUC,"[2]; 50 mg, 50 mg BID PO, Day 1",53.6 ng·h/mL
same,Cmax,"[2]; 50 mg, 50 mg BID PO, Day 5",31.2 ng/mL
same,Tmax,"[2]; 50 mg, 50 mg BID PO, Day 5",1.17 h
same,half-life,"[2]; 50 mg, 50 mg BID PO, Day 5 (samples collected to 24 h)",11 h
same,AUC,"[2]; 50 mg, 50 mg BID PO, Day 5",58.1 ng·h/mL
same,Cmax,"[2]; 100 mg, 100 mg BID PO, Day 1",71.5 ng/mL
same,Tmax,"[2]; 100 mg, 100 mg BID PO, Day 1",1.03 h
same,half-life,"[2]; 100 mg, 100 mg BID PO, Day 1 (samples collected to 12 h)",~2 h
same,AUC,"[2]; 100 mg, 100 mg BID PO, Day 1",152 ng·h/mL
same,Cmax,"[2]; 100 mg, 100 mg BID PO, Day 5",71.6 ng/mL
same,Tmax,"[2]; 100 mg, 100 mg BID PO, Day 5",1.53 h
same,half-life,"[2]; 100 mg, 100 mg BID PO, Day 5 (samples collected to 24 h)",6.2 h
same,AUC,"[2]; 100 mg, 100 mg BID PO, Day 5",200 ng·h/mL
same,concentration at 12 h,"[2]; 50 mg BID PO, Day 1",0.2 ng/mL
same,concentration at 24 h,"[2]; 50 mg BID PO, Day 5",0.18 ng/mL
same,concentration at 12 h,"[2]; 100 mg BID PO, Day 1",0.42 ng/mL
same,concentration at 24 h,"[2]; 100 mg BID PO, Day 5",0.28 ng/mL
"O=C(O)c1cccc(CN2CN(C3CCCCC3)C3(CCN(CCCC(=O)c4ccccc4)CC3)C2=O)c1 [Compound 1, 3-((1-cyclohexyl-4-oxo-8-(4-oxo-4-phenylbutyl)-1,3,8-triazaspiro[4.5]decan-3-yl)methyl)benzoic acid]",Plasma concentration-time profile,"[1]; single PO dose, over 24 h",rapid absorption and rapid elimination
same,Plasma concentration-time profile,"[2]; MAD phase, 50 or 100 mg BID",rapid absorption and rapid elimination
